Test results reported in article PMC6037779, “Repurposing drugs to target the malaria parasite unfolding protein response” (Scientific Reports, 2018).

Experiments:
HCT-116 = test: Growth inhibition of human cell line; type: cell-based
Method: (§1) Growth inhibition experiments were conducted at least three times per compound. […] The statistical analysis was performed with the software Prism 7 (GraphPad Software, San Diego, CA).

[1] = tested on: Plasmodium falciparum 3D7; test: In vitro growth inhibition assay (SYBR Green I), strain 3D7; type: cell-based; settings: Plasmodium falciparum, 3D7; chloroquine-sensitive strain; 72 hours; average of three ± SD; read-out: EC50, growth inhibition, P. falciparum 3D7
Method: A major goal of our study was to evaluate the drug target potential of P. falciparum GRP78, thus we evaluated the effect of the chaperone inhibition on the malaria parasite. Our approach took advantage of several GRP78 inhibitors (Fig. 3a) previously characterized against human cancer cell lines, which were commercially available[20],[24]–[27]. These compounds were tested against two different parasite strains with opposite sensitivity towards the antimalarial drug chloroquine, 3D7 (sensitive) and W2 (resistant). […] A synchronized P. falciparum culture, with over 80% ring forms, was used in the growth inhibition assay. Each strain was assayed at 0.5% parasitaemia and 1.5% hematocrit. A 190 µL aliquot of parasite culture was dispensed per well to microplates that were pre-dispensed with the compounds at various dilutions. […] Dilutions of GRP78 inhibitors and DHA were prepared in water with a final concentration of DMSO below 0.05% (v/v). […] After incubation, the plates were subject to a freeze-thaw cycle (−80 °C) and the parasite growth was quantified by the SYBR Green I method as previously described. Briefly, 100 µl of homogenized parasite culture was transferred into 96-well black plates. 100 µl of SYBR Green lysis buffer (2x SYBR Green I, 100 mM Tris-HCl pH 7.5, 10 mM EDTA, 0.016% Saponin and 1.6% Triton X-100) were added to each well. The plates were incubated at room temperature in darkness for 1 hour.
as §1

PfGRP78-NBD Y39F = molecular target: T1, PfGRP78-NBD Y39F (Plasmodium falciparum, UniProt Q05866, Y39F); test: DSF thermal shift, PfGRP78-NBD Y39F mutant; type: binding
T1 construct: His-tag (pET28-MHL, TEV site) (N, cleaved yes); made in house; host or cells: E. coli BL21(DE3)
T1 sequence (Q05866 26-404 Y39F): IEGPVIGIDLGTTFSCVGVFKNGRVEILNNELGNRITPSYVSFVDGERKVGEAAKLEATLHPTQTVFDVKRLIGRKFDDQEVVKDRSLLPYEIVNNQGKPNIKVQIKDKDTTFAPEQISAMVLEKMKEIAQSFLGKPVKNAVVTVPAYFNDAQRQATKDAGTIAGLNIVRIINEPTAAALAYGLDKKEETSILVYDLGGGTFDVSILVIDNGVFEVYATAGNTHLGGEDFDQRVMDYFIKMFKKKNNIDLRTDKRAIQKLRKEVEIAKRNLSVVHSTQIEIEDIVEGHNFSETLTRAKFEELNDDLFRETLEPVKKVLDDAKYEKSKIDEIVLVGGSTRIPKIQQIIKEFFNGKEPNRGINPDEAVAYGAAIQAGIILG
Method: (§2) Initially, their binding was determined using a DSF (Differential Scanning Fluorimetry) assay. In this assay, an interaction between the chaperone and a compound was measured as a change in the protein’s melting temperature (Tm), by subtracting the Tm of the protein by itself to the melting value of the protein in the presence of the compound. Differences above or below 1 °C between the melting temperatures (ΔTm) were considered indicative of a protein-compound interaction.
DSF screening was carried out using a CFX96 Touch Real-Time PCR Detection System (BioRad, California). The PfGRP78-FL, PfGRP78-NBD wild type and mutant, and human GRP78-NBD were buffered in 25 mM hepes pH 7.5, 250 mM NaCl and assayed in a 96-well format. The final concentration of the protein sample was optimized between 0.05 and 0.2 mg/ml for each protein. The concentration was optimized for each protein to avoid saturation of the fluorescence detector. The GRP78 inhibitors were used at a final concentration of 0.5 mM. SYPRO Orange (Life Technologies, USA) was added as a fluorescence probe in a dilution of 1:1000.

PfGRP78-NBD = molecular target: T2, PfGRP78-NBD (Plasmodium falciparum, UniProt Q05866); test: DSF thermal shift, PfGRP78-NBD; type: binding; settings: compound 0.5 mM; shifts above or below 1 °C significant
T2 construct: His-tag (pET28-MHL, TEV site) (N, cleaved yes); made in house; host or cells: E. coli BL21(DE3)
T2 sequence (Q05866 26-404): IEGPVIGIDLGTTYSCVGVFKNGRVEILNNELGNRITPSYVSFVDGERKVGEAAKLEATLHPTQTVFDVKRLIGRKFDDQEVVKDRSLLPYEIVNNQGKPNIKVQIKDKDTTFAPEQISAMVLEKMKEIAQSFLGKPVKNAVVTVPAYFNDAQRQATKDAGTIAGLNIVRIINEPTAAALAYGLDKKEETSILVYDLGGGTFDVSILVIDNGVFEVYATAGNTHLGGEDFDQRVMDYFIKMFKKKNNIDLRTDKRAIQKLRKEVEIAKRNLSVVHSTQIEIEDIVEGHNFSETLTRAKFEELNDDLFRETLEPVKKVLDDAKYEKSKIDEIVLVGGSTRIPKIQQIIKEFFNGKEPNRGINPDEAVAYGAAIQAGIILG
Method: as §2, with “The Plasmodium and human GRP78 NBD differences were further characterized by measuring their interaction with ATP, ADP, and several compounds referenced in the literature as GRP78 inhibitors (Fig. 3a). Initially,” for “Initially,”, “interaction. As expected, the Plasmodium GRP78 chaperone interacted with both ATP and ADP. Four of the six compounds tested had significant effects on protein thermal stability (Fig. 3b).” for “interaction.”
DSF screening was carried out using a CFX96 Touch Real-Time PCR Detection System (BioRad, California). The PfGRP78-FL, PfGRP78-NBD wild type and mutant, and human GRP78-NBD were buffered in 25 mM hepes pH 7.5, 250 mM NaCl and assayed in a 96-well format. […]. The concentration was optimized for each protein to avoid saturation of the fluorescence detector. The GRP78 inhibitors were used at a final concentration of 0.5 mM. SYPRO Orange (Life Technologies, USA) was added as a fluorescence probe in a dilution of 1:1000. The experiments were conducted between 18 °C to 90 °C at a heating rate of 1 °C per minute. The recorded fluorescence reads were fitted to the Boltzmann sigmoid function using DMAN software. The inflection point of each fitted curve is defined as the melting temperature (Tm). The observed temperature shift, ΔTm, was recorded as the difference between Tm of the protein with ligand minus Tm of the protein without ligand. Thermal shifts above or below 1 °C were considered significant.

PfGRP78-NBD wt = molecular target: T3, PfGRP78-NBD wt (Plasmodium falciparum, UniProt Q05866); test: biochemical; type: binding
T3 construct: His-tag (pET28-MHL, TEV site) (N, cleaved yes); made in house; host or cells: E. coli BL21(DE3)
T3 sequence (Q05866 26-404): as above
Method: To quantify the binding affinities of PfGRP78-NBD for the selected compounds, dissociation constants (Kd) were determined by surface plasmon resonance (SPR). […] Purified PfGRP78-FL, PfGRP78-NBD wild-type and mutant, and human GRP78-NBD were immobilized on a CM5 sensorchip using NHS/EDC coupling following the manufacturer protocol to a level of <10,000 RUs, a reference surfaces without immobilized proteins served as a control for nonspecific binding and refractive index changes. […] The running buffer was 10 mM HEPES, pH 7.4, 150 mM NaCl, 0.005% P20, 1% DMSO and 2 mM MgCl2. Buffer only injections were used as blanks. The Biacore responses recorded during the 30 seconds of the injection were used to estimate the association constant (kon) and the 300 seconds after the injection were used to estimate the dissociation constant (koff). All dissociation and kinetic constants were estimated using double subtracted sensorgrams[40] using BiaEvaluation Software (GE Healthcare). All the reported parasite dissociation constants (Kd) were estimated with affinity analysis, and all the reported human Kds were calculated from kinetic constants.

## COc1ccc(-c2nc(-c3cc(C(F)(F)F)cc(C(F)(F)F)c3)n(Cc3ccc(C(N)=O)cc3)c2-c2ccc(OC)cc2)cc1 [Apoptozole]
HCT-116; HCT-116, human cell line, average of three ± SD, read-out: EC50, growth inhibition, HCT-116
  EC50: 16.5 ± 12.8 µM
HCT-116; HCT-116 vs P. falciparum EC50, Results text b30
  times more selective towards P. falciparum: 2.9 times
[1]
  EC50: 6.8 ± 1.4 µM
PfGRP78-NBD Y39F
  DSF binding to PfGRP78-NBD Y39F: failed to bind
PfGRP78-NBD
  DSF effect on thermal stability of PfGRP78-NBD: increased the thermal stability
PfGRP78-NBD wt
  Kd: 4.27 ± 0.86 µM
